From patent US8247437B2, “N-hydroxyamide derivatives and use thereof” (Merck Serono SA, priority 2004, dated 2012) come the findings set out here.

In assay [1] the target is 92 kDa gelatinase (MMP-9) (Homo sapiens, UniProt P14780). In words: MMP-9 enzyme inhibition assay (coumarin-labeled peptide substrate McaPLGLDpaAR). In kind it is biochemical. Here is the method: Compounds of the invention were tested for inhibitory activity against 92 kDa gelatinase (MMP-9) in an assay using a coumarin-labeled peptide substrate, (7-methoxycoumarin-4-yl)acetyl-Pro-Leu-Gly-Leu-(3-[2,4-dinitrophenyl]-L-2,3diaminopropionyl)-Ala-Arg-NH2 (McaPLGLDpaAR) (Knight et al, FEBS Lett. 1992; 263-266).
(§1) Stock solutions were made up as follows: Assay Butter: 100 mM Tris-HCl pH 7.6 is containing 100 mM NaCl, 10 mM CaCl2, and 0.05% Brij 35.
(§2) Substrate: 0.4 mM McaPLGLDpaAR (from Bachem) (0.437 mg/ml) stock solution in 100% DMSO (stored at −20° C.). Dilute to 8 μM in assay butter.
(§3) Enzyme: Recombinant human 92 kDa gelatinase (MMP-9; APMA (4-aminophenyl mercuric acetate)-activated if necessary) appropriately diluted in assay butter.
(§4) Test Compounds were prepared initially as 10 mM compound solution in 100% DMSO, diluted to 1 mM in 100% DMSO, then serially diluted 3-fold in 100% DMSO across columns 1-10 of a 96-well microtitre plate Assay concentration range, 100 μM (column 1) to 5.1 nM (column 10).
(§5) The assay was performed in a total volume of 100 μL per well in 96-well microfilm plates. Activated enzyme (20 μL) was added to the wells followed by 20 μL of assay butter. Appropriate concentrations of test compounds dissolved in 10 μL of DMSO were then added followed by 50 μL of McaPLGLDpaAR (8 μM, prepared by dilution of DMSO stock in assay butter). For each as say ten concentrations of test compound were examined in duplicate. Control wells lack either enzyme or test compound. The reactions were incubated at 37° C. for 2 hours. The fluorescence at 405 nm was measured immediately with an SLT Fluostar fluorometer (SL T Labinstruments GmbH, Grödig, Austria) using 320 nm excitation, without stopping the reaction.
(§6) The effect of the test compound was determined from the dose response curve generated by the 10 duplicate concentrations of inhibitor. The IC50 (the concentration of compound required to give a 50% decrease in enzyme activity) was obtained by fitting data to the equation, Y=a+((b−a)/(1+(c/X)^d)). (Y=inhibition achieved for a particular dose; X=the dose in nM; a=minimum y or zero % inhibition; b=maximum y or 100% inhibition; c=is the IC50; d=is the slope). The result was rounded to one significant figure.

Another assay addresses T1, gelatinase A (MMP-2) (Homo sapiens, UniProt P08253).
T1 sequence (P08253 110-660): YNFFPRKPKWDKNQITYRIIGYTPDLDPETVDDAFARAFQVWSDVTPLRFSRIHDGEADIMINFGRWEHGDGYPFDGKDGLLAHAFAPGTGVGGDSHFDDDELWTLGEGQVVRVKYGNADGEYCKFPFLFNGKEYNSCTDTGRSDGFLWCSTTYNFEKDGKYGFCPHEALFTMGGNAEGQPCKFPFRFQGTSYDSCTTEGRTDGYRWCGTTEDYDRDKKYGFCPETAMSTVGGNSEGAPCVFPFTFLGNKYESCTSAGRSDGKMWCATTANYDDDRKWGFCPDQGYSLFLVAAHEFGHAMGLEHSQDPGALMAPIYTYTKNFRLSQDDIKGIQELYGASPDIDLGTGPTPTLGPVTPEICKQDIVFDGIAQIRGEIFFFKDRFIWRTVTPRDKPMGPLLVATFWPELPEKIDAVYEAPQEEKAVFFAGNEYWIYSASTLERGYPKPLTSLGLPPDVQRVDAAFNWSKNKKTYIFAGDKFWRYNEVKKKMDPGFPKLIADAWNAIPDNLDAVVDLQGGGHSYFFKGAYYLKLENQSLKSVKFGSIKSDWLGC
Briefly: MMP-2 enzyme inhibition assay (coumarin-labelled peptide substrate McaPLGLDpaAR). In kind it is biochemical. Here is the method: as §1, §2, §3, §4, §5, §6
Compounds of the invention were tested for inhibitory activity against gelatinase A (MMP-2) in an assay using a coumarin-labelled peptide substrate, (7-methoxycoumarin-4-yl)acetyl-Pro-Leu-Gly-Leu-(3-[2,4-dinitrophenyl]-L-2,3diaminopropionyl)-Ala-Arg-NH2 (Mca PLGLDpaAR) (Knight et al, 1992, above). The protocol for this assay was as described for the MMP-9 assay above.

Assay [2] relates to IL-2-induced peritoneal recruitment of lymphocytes. In words: IL-2-induced peritoneal recruitment of lymphocytes. As to conditions: mice, 15 min prior to IL-2, cells collected 24 h after IL-2. In kind it is in vivo, C3H/HEN mice. The method, then: Administration of IL-2 intraperitoneally causes migration of lymphocytes into the intraperitoneal cavity. This is a model for the cellular migration that occurs during inflammation.
C3H/HEN mice (Elevage Janvier, France) were intraperitoneally injected with IL-2 (Serono Pharmaceutical Research Institute, 20 μg/kg, in saline).
Compounds of the invention were suspended in 0.5% carboxymethylcellulose (CMC)/0.25% tween-20 and were administered by s.c. or p.o. route (10 ml/kg) 15 min prior to administration of IL-2.
Twenty-four hours after administration of IL-2, peritoneal white blood cells were collected by 3 successive lavages of the peritoneal cavity with 5 ml phosphate buffered saline (PBS)-1 mM EDTA (+4° C.). The suspension was centrifuged (1700 g×10 min at +4° C.). The resulting pellet was suspended in 1 ml PBS-1 mM EDTA.
Lymphocytes were identified and counted using a Beckman/Coulter counter.
The animals were divided into 6 groups (6 mice each group):
Group 1: (baseline) received 0.5% CMC/0.25% tween-20 (vehicle of compound of the invention) and saline (vehicle of IL-2);
Group 2: (control IL-2) received 0.5% CMC/0.25% tween-20 and injection of IL-2;
Group 3: Experimental group (Compound of the invention Dose 1) received a compound of the invention and injection of IL-2;
Group 4: Experimental group (Compound of the invention Dose 2) received a compound of the invention and injection of IL-2;
Group 5: Experimental group (Compound of the invention Dose 3) received a compound of the invention and injection of IL-2;
Group 6: Reference group received reference compound dexamethasone and injection of IL-2.
Inhibition of lymphocyte recruitment was calculated as follows:
Where Ly 1=Number of lymphocytes in group 1 (E3/μl), Ly 2=Number of lymphocytes in group 2 (E3/μl), Ly X=Number of lymphocytes in group X (3-5) (E3/μl).

Another assay concerns the target metalloelastase (MMP-12) (Homo sapiens, UniProt P39900). Briefly: MMP-12 enzyme inhibition assay (coumarin-labelled peptide substrate McaPLGLDpaAR). In kind it is biochemical. Here is the method:
as §1, §2, §3, §4, §5, §6
Compounds of the invention were tested for inhibitory activity against metalloelastase (MMP-12) in an assay using a coumarin-labelled peptide substrate, (7-methoxycoumarin-4-yl)acetyl-Pro-Leu-Gly-Leu-(3-[2,4-dinitrophenyl]-L-2,3-diaminopropionyl)-Ala-Arg-NH2 (McaPLGLDpaAR) (Knight et al, 1992, above). The protocol for this assay was as described for the MMP-9 assay above.

The next assay concerns the target T2, collagenase (MMP-1) (Homo sapiens, UniProt P03956).
T2 sequence (P03956 100-469): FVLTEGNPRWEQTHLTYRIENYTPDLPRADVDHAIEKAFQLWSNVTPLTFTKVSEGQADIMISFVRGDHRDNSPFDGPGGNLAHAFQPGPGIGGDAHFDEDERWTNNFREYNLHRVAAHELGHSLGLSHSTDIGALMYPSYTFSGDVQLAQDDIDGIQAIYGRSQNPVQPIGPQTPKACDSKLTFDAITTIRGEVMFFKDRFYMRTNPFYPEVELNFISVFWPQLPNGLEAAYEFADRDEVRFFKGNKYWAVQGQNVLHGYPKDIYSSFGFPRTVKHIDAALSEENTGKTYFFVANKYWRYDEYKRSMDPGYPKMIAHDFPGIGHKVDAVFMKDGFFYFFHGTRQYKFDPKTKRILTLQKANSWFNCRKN
In words: MMP-1 enzyme inhibition assay (coumarin-labelled peptide substrate McaPLGLDpaAR). In kind it is biochemical. The method, then: as §1, §2, §3, §4, §5, §6
Compounds of the invention were tested for inhibitory activity against collagenase (MMP-1) in an assay using a coumarin-labelled peptide substrate, (7-methoxycoumarin-4-yl)acetyl-Pro-Leu-Gly-Leu-(3-[2,4-dinitrophenyl]-L-2,3diaminopropionyl)-Ala-Arg-NH2 (Mca PLGLDpaAR) (Knight et al, 1992, above). The protocol for this assay was as described for the MMP-9 assay above.

The mark [3] stands for this setting: Table 1, compounds of Formula (I), read-out: MMP-9 IC50.
The mark [4] stands for this setting: Table 1, compounds of Formula (I), read-out: MMP-2 IC50.
Where [5] appears, read: dose 1 mg/kg po, Table 3, Formula (I).
[6] abbreviates: Table 1, compounds of Formula (I), read-out: MMP-12 IC50.
Setting [7] is: Table 1, compounds of Formula (I), read-out: MMP-1 IC50.
Setting [8] is: dose 1 mg/kg po, Table 4, Formula (VI).

Where two headings read alike, the source gives them in different places. A value given as a limit tells only on which side of the number the result lay.

metalloelastase (MMP-12), sequence (P39900 106-470): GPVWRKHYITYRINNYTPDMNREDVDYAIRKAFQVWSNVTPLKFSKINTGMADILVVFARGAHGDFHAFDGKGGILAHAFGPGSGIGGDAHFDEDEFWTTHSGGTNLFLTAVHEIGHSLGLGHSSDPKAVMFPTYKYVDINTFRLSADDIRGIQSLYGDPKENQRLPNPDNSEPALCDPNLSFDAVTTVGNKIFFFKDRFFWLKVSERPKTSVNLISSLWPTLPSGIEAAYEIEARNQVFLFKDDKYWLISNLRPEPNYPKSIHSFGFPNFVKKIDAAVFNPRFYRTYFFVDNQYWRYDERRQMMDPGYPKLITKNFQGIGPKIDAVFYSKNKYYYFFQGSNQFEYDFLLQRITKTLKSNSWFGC
92 kDa gelatinase (MMP-9), sequence (P14780 107-707 limits assumed): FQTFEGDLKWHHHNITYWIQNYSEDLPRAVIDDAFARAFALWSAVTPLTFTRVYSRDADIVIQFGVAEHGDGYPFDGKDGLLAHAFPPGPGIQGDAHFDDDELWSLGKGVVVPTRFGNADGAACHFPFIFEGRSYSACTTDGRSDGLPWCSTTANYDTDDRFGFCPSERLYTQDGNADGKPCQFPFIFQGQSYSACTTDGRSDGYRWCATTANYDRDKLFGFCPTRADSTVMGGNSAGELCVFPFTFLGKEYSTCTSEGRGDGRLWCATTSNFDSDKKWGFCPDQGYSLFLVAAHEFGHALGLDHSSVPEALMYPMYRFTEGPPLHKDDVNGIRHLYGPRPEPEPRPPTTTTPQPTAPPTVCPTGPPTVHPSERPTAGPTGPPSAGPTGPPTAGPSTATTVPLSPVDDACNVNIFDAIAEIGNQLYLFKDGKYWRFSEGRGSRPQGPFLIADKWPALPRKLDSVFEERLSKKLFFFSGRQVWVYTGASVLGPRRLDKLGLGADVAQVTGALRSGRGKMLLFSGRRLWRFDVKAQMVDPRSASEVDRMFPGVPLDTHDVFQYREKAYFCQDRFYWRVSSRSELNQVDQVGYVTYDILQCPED

Take `CC(C)C[C@H](C(=O)N1CCN(c2ccccn2)C[C@H]1C)[C@H](O)C(=O)NO` (single isomer, unassigned) [Example 4]: the half-inhibitory concentration (IC50) (commonly the concentration at which inhibition is half-maximal) in assay [1] (setting [3]) was 0.012 µM; at gelatinase A (MMP-2) (setting [4]) it was 0.004 µM; at metalloelastase (MMP-12) (setting [6]), 0.017 µM; on collagenase (MMP-1) (setting [7]) it was 0.301 µM. The “% inhibition of IL-2-induced peritoneal recruitment of lymphocytes” value (“% inhibition” below) in assay [2] (setting [5]) was 39%.

For the compound `CCOc1ccc(CCC[C@@H](C(=O)N2C[C@@H]3C[C@H]2CN3c2ccc(F)cc2)[C@H](O)C(=O)NO)cc1` [Example 47, (2S,3R)-6-(4-ethoxyphenyl)-3-{[(1S,4S)-5-(4-fluorophenyl)-2,5-diazabicyclo[2.2.1]hept-2-yl]carbonyl}-N,2-dihydroxyhexanamide], in assay [2] (setting [8]), the “% inhibition” value stood at 41%.

Consider `CC(C)C[C@H](C(=O)N1CC=C(c2ccccc2)CC1)[C@@H](O)C(=O)NO` [Example 61, (2R,3S)-N,2-dihydroxy-5-methyl-3-[(4-phenyl-3,6-dihydropyridin-1(2H)-yl)carbonyl]hexanamide], for which the half-maximal inhibitory concentration (IC50) in assay [1] (setting [3]) is 0.048 µM; at gelatinase A (MMP-2) (setting [4]), 0.008 µM; at metalloelastase (MMP-12) (setting [6]), 0.002 µM; on collagenase (MMP-1) (setting [7]) it was above 5 µM. For the same compound, in assay [2] (setting [5]), the “% inhibition” value is 67%.

On to `CCOc1ccc(CCC[C@H](C(=O)N2CCN(c3ccccn3)C[C@@H]2C)[C@H](O)C(=O)NO)cc1` [Example 7, (2S,3S)-6-(4-ethoxyphenyl)-N,2-dihydroxy-3-{[(2S)-2-methyl-4-(2-pyridinyl)piperazinyl]carbonyl}hexanamide], for which, in assay [2] (setting [5]), the “% inhibition” value came out at 46%.

Consider `CCOc1ccc(CCC[C@@H](C(=O)N2CCN(CCN3CCOCC3)CC2)[C@H](O)C(=O)NO)cc1` [Example 37, (2S,3R)-6-(4-ethoxyphenyl)-N,2-dihydroxy-3-{[4-(2-morpholin-4-ylethyl)piperazin-1-yl]-carbonyl}hexanamide], for which the IC50 in assay [1] (Table 2, compounds of Formula (VI), read-out: MMP-9 IC50) was 0.052 µM; on gelatinase A (MMP-2) (Table 2, compounds of Formula (VI), read-out: MMP-2 IC50) it was 0.065 µM; on metalloelastase (MMP-12) (Table 2, compounds of Formula (VI), read-out: MMP-12 IC50) it was 0.023 µM; at collagenase (MMP-1) (Table 2, compounds of Formula (VI), read-out: MMP-1 IC50) it was above 5 µM. In addition, in assay [2] (setting [8]), the “% inhibition” value is reported as 42%.

As to `CC(C)C[C@H](C(=O)N1CCN(c2ccc(-c3ccccc3)cc2)C[C@H]1C)[C@H](O)C(=O)NO` [Example 53, (2S,3S)-3-{[(2R)-4-biphenyl-4-yl-2-methylpiperazin-1-yl]carbonyl}-N,2-dihydroxy-5-methylhexanamide], the IC50 in assay [1] (setting [3]) is 0.007 µM; at gelatinase A (MMP-2) (setting [4]) it was 0.0075 µM; at metalloelastase (MMP-12) (setting [6]), 0.005 µM; at collagenase (MMP-1) (setting [7]) it was above 5 µM. Moreover, the “% inhibition” value in assay [2] (setting [5]) turned out to be 61%.

`CCOc1ccc(CCCC(C(=O)N2CCN(c3ccccn3)C[C@H]2C)[C@H](O)C(=O)NO)cc1` (mixture of isomers) [Example 6, (2S,3S)-6-(4-ethoxyphenyl)-N,2-dihydroxy-3-{[(2R)-2-methyl-4-pyridin-2-ylpiperazin-1-yl]-carbonyl}hexanamide]: the IC50 in assay [1] (setting [3]) was 0.022 µM; on gelatinase A (MMP-2) (setting [4]) it was 0.008 µM; on metalloelastase (MMP-12) (setting [6]) it was 0.02 µM; on collagenase (MMP-1) (setting [7]) it was above 5 µM. The “% inhibition” value was 46% in assay [2] (setting [5]) and 65% in assay [2] (dose 3 mg/kg po, Table 3, Formula (I)).

For the compound `CCOc1ccc(CCC[C@@H](C(=O)N2CCC(Nc3ccccc3)CC2)[C@H](O)C(=O)NO)cc1` [Example 20, (2S,3R)-3-[(4-anilinopiperidin-1-yl)carbonyl]-6(4-ethoxyphenyl)-N,2-dihydroxyhexanamide], the IC50 in assay [1] was 0.037 µM; against gelatinase A (MMP-2), 0.082 µM; on metalloelastase (MMP-12), 0.029 µM; against collagenase (MMP-1), above 5 µM. The “% inhibition” value in assay [2] (setting [8]) is listed as 38%.
